In PMC10095932 (Molecules, 2023):
“Also recorded” adds a separate entry of the source. Like-named read-outs stand apart in the source and are kept apart here. Where a SMILES comes first, the peptide text is derived from it. Bridges are numbered along the chain shown (N, C = ends).

What was measured:
[1] = biological target: T1, rat NPR-A (Rattus norvegicus, UniProt P18910); assay: cGMP ALPHAscreen, cGMP production in PC12 cells; format: cell-based; conditions: PC12 cells, cGMP ALPHAscreen
T1 construct: endogenous in cells; host or cells: rat PC12 cells
T1 sequence (P18910 29-1057): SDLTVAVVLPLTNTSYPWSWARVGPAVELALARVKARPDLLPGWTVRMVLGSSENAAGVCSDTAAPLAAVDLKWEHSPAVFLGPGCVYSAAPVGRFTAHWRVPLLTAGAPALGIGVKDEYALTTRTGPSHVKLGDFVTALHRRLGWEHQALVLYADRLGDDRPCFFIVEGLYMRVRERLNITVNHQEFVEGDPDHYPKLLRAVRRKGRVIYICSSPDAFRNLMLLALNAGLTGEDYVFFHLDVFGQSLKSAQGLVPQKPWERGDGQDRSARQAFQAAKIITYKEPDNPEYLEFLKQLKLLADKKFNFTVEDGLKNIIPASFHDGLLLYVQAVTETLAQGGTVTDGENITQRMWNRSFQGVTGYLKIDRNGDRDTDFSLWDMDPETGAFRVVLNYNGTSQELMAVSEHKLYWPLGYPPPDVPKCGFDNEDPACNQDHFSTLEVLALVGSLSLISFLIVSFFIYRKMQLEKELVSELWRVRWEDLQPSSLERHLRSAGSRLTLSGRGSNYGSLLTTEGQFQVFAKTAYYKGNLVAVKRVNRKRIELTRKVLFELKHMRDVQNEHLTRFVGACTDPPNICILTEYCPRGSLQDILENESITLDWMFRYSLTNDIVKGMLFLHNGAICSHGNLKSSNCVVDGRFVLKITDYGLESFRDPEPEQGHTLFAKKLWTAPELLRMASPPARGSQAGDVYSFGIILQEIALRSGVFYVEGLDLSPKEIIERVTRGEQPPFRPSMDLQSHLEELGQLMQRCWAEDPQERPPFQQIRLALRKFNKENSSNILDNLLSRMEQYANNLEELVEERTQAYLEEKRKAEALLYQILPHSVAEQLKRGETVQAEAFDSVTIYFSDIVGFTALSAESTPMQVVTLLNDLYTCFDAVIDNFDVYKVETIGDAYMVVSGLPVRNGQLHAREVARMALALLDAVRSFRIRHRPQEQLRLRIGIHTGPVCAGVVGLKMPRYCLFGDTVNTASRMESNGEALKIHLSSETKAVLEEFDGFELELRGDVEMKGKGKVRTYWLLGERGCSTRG
Description: NP activity can be determined by the effectiveness of the peptide to elicit cGMP production through NPR-A. The cGMP ALPHAscreen evaluates the ability of peptides to stimulate cGMP production in cells through a non-radioactive, homogenous, proximity assay which encompasses […]. […] In order to evaluate the potency of TNPa-e at rNPR-A, TNPa-e were evaluated using the cGMP ALPHAscreen in rat PC12 cells.
(§1) Cells were cultured at 5% CO2 and 37 °C. HEK 293 cells were cultured in high glucose DMEM (Gibco, Carlsbad, CA, USA) supplemented with 10% FBS, and 1% penicillin/streptomycin. HEK 293 cells were seeded in media lacking penicillin/streptomycin 24 to 48 h pre-transfection. PC12 cells were cultured in high glucose DMEM (Gibco) supplemented with 10% FBS and 1% penicillin/streptomycin.
(§2) The cGMP ALPHAscreen was performed using the ALPHAscreen Protein A detection kit and the biotinylated cGMP supplement (Perkin Elmer, Waltham, MA, USA) with rabbit anti-cGMP polyclonal antibody (Biovision, Mountain View, CA, USA). Cells were detached from the flask and the resulting pellet was resuspended in stimulation buffer (HBSS supplemented with 0.1% w/v BSA and 1 mM IBMX at 37 °C). Cells were added to a white 384-well Optiplate (Perkin Elmer, Waltham, USA) to 30,000 cells per well for HEK 293 cells and 10,000 cells per well for PC12 cells. Cells were incubated with different concentrations of test peptides (concentration range of 1 × 10^−5 to 1 × 10^−11 M in stimulation buffer) at 37 °C for 30 min. Cells were lysed with lysis buffer (1 M HEPES, 0.3% Tween-20, 1% BSA in H2O, pH 7.4). Then 5 μL acceptor-bead mix was added to each well under subdued lighting conditions, followed by 5 μL of donor-bead mix. Plates were incubated for ~12 h, slowly shaking at room temperature. After incubation, the ALPHAscreen signal was measured using an EnVision plate reader (Perkin Elmer). The standard curve consisted of cGMP in a concentration range of 1 × 10^−6 to 1 × 10^−12 M. All data points were acquired in triplicate and were analyzed using GraphPad Prism 5.0 software (GraphPad Software, Inc., San Diego, CA, USA).

[2] = biological target: T2, human NPR-A (Homo sapiens, UniProt P16066); assay: cGMP ALPHAscreen, cGMP production in HEK 293 cells transiently overexpressing hNPR-A; format: cell-based; conditions: HEK 293 cells overexpressing hNPR-A
T2 construct: expressed in transfected cells; host or cells: HEK 293 cells, transient, Lipofectamine 2000
T2 sequence (P16066 33-1061): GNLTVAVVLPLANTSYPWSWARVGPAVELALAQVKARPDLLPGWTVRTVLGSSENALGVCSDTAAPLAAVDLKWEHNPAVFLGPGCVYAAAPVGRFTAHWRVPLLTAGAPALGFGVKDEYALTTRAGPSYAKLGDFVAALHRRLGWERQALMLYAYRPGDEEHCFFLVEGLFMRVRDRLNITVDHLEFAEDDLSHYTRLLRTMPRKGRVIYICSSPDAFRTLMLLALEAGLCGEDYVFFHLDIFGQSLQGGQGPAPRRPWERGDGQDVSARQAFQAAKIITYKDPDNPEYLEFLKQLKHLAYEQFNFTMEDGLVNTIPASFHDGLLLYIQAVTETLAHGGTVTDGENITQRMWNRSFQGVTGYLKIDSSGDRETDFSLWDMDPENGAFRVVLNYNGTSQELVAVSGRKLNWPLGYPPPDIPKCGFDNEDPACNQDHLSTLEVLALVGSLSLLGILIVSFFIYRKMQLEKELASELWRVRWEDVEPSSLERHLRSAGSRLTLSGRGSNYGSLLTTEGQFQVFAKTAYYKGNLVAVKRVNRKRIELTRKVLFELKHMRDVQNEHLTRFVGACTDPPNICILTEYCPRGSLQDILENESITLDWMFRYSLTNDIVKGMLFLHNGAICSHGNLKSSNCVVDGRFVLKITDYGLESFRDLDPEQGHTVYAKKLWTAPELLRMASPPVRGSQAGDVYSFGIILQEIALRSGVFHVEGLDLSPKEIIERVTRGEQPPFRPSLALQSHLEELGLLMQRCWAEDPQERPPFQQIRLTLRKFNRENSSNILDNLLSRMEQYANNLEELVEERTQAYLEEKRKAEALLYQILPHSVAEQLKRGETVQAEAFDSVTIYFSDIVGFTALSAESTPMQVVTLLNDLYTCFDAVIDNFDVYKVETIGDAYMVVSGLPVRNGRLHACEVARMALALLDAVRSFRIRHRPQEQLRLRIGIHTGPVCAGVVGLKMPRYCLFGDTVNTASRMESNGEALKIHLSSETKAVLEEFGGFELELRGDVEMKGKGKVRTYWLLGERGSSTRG
Description: as §1
HEK 293 cells were transfected using the lipofectamine 2000 transfection protocol (Invitrogen). Cells (95% confluence) were transfected with 45% pcDNA3.1/hNPR-A, 45% pcDNA3.1, and 10% pEGFP-NI to the optimal DNA concentration specified in the protocol. The co-transfection with pEGFP-NI plasmid allowed the determination of the transfection efficiency. This was assessed by the estimation of the number of GFP-expressing cells using an Olympus IX70 inverted fluorescence microscope. Transfected cells were used for assay purposes within 24 h.
as §2

[3] = cited from earlier work
Text: In humans, the NP system consists primarily of three main peptides, A-type or atrial natriuretic peptide (ANP), B-type or brain natriuretic peptide (BNP), and C-type natriuretic peptide (CNP). Distinct variations in the expression levels of each NP correlates strongly with normal physiological and disease conditions. Due to their importance in cardio-renal diseases these peptides have been extensively studied. Structurally, the NP family is characterized by a 17-residue ring structure with a highly conserved internal sequence and variable N- and C-terminal regions. W ...

[4] = system: Neutral endopeptidase 24.11 (NEP); assay: 500 ng NEP (activity 400 pmol min^−1 μg^−1) in 100 mM Tris.HCl and 150 mM NaCl (pH 7.4); conditions: 37 °C, up to 24 h

With `CC[C@H](C)[C@H](NC(=O)[C@H](CCCCN)NC(=O)[C@H](CO)NC(=O)[C@H](CC(=O)O)NC(=O)[C@@H](N)CO)C(=O)NCC(=O)N[C@@H](CC(=O)O)C(=O)NCC(=O)N[C@H]1CSSC[C@@H](C(=O)N[C@@H](CC(N)=O)C(=O)N[C@@H](CCCNC(=N)N)C(=O)N2CCC[C@H]2C(=O)N[C@H](C(=O)N[C@@H](CCC(N)=O)C(=O)N[C@@H](CC(N)=O)C(=O)N[C@@H](CCCNC(=N)N)C(=O)N2CCC[C@H]2C(=O)N[C@@H](CCCCN)C(=O)N[C@@H](CCC(N)=O)C(=O)N[C@H](C(=O)N2CCC[C@H]2C(=O)NCC(=O)NCC(=O)N[C@@H](CO)C(=O)O)[C@@H](C)CC)C(C)C)NC(=O)CNC(=O)[C@H](CC(C)C)NC(=O)CNC(=O)[C@H](CO)NC(=O)[C@H](C(C)C)NC(=O)[C@H](CO)NC(=O)CNC(=O)[C@H]([C@@H](C)CC)NC(=O)[C@H](Cc2c[nH]cn2)NC(=O)[C@H](CC(=O)O)NC(=O)[C@H](CC(C)C)NC(=O)[C@@H]2CCCN2C(=O)[C@H](CC(C)C)NC(=O)CNC(=O)[C@H](Cc2ccccc2)NC1=O` [TNPe] (H-SDSKIGDGCFGLPLDHIGSVSGLGCNRPVQNRPKQIPGGS-OH; disulfide 9-25) the EC50 ([1]; 30 min at 37 °C, three to five separate experiments in triplicate, read-out: rNPR-A EC50 (95% CI), potency to stimulate cGMP production) was 1800 nM, the EC50 ([1]; read-out: EC50 at rNPR-A) was > 1000 nM and the Emax at 10 µM ([2]; HEK293, read-out: cGMP production, % of the maximum response (compared with DNP, hANP, hBNP), at 10 μM) was < 20%. For the same compound, the EC50 ([2]; 30 min at 37 °C, cGMP ALPHAscreen, three separate experiments in triplicate, read-out: hNPR-A EC50 (95% CI), potency to stimulate cGMP production) was > 10000 nM.
For `CC[C@H](C)[C@@H]1NC(=O)[C@H](CCCNC(=N)N)NC(=O)[C@H](CC(=O)O)NC(=O)[C@H](CCSC)NC(=O)[C@H](CCCNC(=N)N)NC(=O)CNC(=O)CNC(=O)[C@H](Cc2ccccc2)NC(=O)[C@@H](NC(=O)[C@H](CO)NC(=O)[C@H](CO)NC(=O)[C@H](CCCNC(=N)N)NC(=O)[C@H](CCCNC(=N)N)NC(=O)[C@H](CC(C)C)NC(=O)[C@@H](N)CO)CSSC[C@@H](C(=O)N[C@@H](CC(N)=O)C(=O)N[C@@H](CO)C(=O)N[C@@H](Cc2ccccc2)C(=O)N[C@@H](CCCNC(=N)N)C(=O)N[C@@H](Cc2ccc(O)cc2)C(=O)O)NC(=O)CNC(=O)[C@H](CC(C)C)NC(=O)CNC(=O)[C@H](CO)NC(=O)[C@H](CCC(N)=O)NC(=O)[C@H](C)NC(=O)CNC1=O` [hANP, human atrial natriuretic peptide], the half-life in plasma [3] is given as 3 min.
For `CC[C@H](C)[C@@H]1NC(=O)[C@H](CCCNC(=N)N)NC(=O)[C@H](CC(=O)O)NC(=O)[C@H](CCSC)NC(=O)[C@H](CCCCN)NC(=O)[C@H](CCCNC(=N)N)NC(=O)CNC(=O)[C@H](Cc2ccccc2)NC(=O)[C@@H](NC(=O)CNC(=O)[C@H](CO)NC(=O)CNC(=O)[C@H](CCC(N)=O)NC(=O)[C@@H](NC(=O)[C@H](CCSC)NC(=O)[C@H](CCCCN)NC(=O)[C@@H]2CCCN2C(=O)[C@@H](N)CO)C(C)C)CSSC[C@@H](C(=O)N[C@@H](CCCCN)C(=O)N[C@H](C(=O)N[C@@H](CC(C)C)C(=O)N[C@@H](CCCN=C(N)N)C(=O)N[C@@H](CCCN=C(N)N)C(=O)N[C@@H](Cc2cnc[nH]2)C(=O)O)C(C)C)NC(=O)CNC(=O)[C@H](CC(C)C)NC(=O)CNC(=O)[C@H](CO)NC(=O)[C@H](CO)NC(=O)[C@H](CO)NC(=O)[C@H](CO)NC1=O` [hBNP], the half-life in plasma [3] is listed as 22 min.
With SDSKIGNGCFGFPLDRIGSVSGLGCNRIMQNPPKKFSGE the cleaved bond [4] was “Lys35-Phe36, major, after 24 h; also recorded: Cys9-Phe10, major, after 24 h; also recorded: Arg27-Ile28, major, after 24 h”.
